Experimental data published in PubChem BioAssay AID330 (DTP/NCI, 2004).
“And” between values parts separate entries of the source, which are not always exact repeats. Identical values can stand only once. Inconclusive results and toxic doses are left out.

System: P388 leukemia ip, CD2F1 mice, survival T/C
Test: NCI In Vivo Anticancer Drug Screen. Data for tumor model P388 Leukemia (intraperitoneal) in CD2F1 (CDF1) mice
Conditions: endpoint: median survival time, higher = longer survival
In short: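 Mice carrying the transplanted tumor received test compound or vehicle. Survival was recorded in each group, and the value is the treated-group measurement divided by that of the vehicle-treated control group.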

[1] = dose: 50.0 mg/kg/injection, schedule: Q01DX009 (ip), vehicle: saline
[2] = dose: 50.0 mg/kg/injection, schedule: Q01DX009 (ip), vehicle: Klucel (hydroxypropylcellulose) (HPC)
[3] = dose: 50.0 mg/kg/injection, schedule: Q01DX009 (ip), vehicle: saline with Tween-80
[4] = dose: 100.0 mg/kg/injection, schedule: Q01DX009 (ip), vehicle: saline with Tween-80
[5] = dose: 50.0 mg/kg/injection, schedule: Q01DX005 (ip), vehicle: saline with Tween-80
[6] = dose: 100.0 mg/kg/injection, schedule: Q01DX005 (ip), vehicle: saline with Tween-80
[7] = dose: 200.0 mg/kg/injection, schedule: Q01DX005 (ip), vehicle: saline with Tween-80
[8] = dose: 60.0 mg/kg/injection, schedule: Q01DX005 (ip), vehicle: saline with Tween-80
[9] = dose: 120.0 mg/kg/injection, schedule: Q01DX005 (ip), vehicle: saline with Tween-80
[10] = dose: 50.0 mg/kg/injection, schedule: Q01DX005 (ip), vehicle: Klucel (hydroxypropylcellulose) (HPC)
[11] = dose: 240.0 mg/kg/injection, schedule: Q01DX005 (ip), vehicle: saline with Tween-80

In the case of `CC(C)(CCC#N)C1NC(C(=O)O)CS1` (centres undefined), the T/C [1] is reported as 102 % of control, the T/C (dose: 100.0 mg/kg/injection, schedule: Q01DX009 (ip), vehicle: saline) is reported as 99 % of control and the T/C (dose: 200.0 mg/kg/injection, schedule: Q01DX009 (ip), vehicle: saline) is reported as 87 % of control.
For `O=C(CCc1ccc(O)cc1)ON1C(=O)CCC1=O`, the T/C (dose: 12.5 mg/kg/injection, schedule: Q01DX009 (ip), vehicle: Klucel (hydroxypropylcellulose) (HPC)) was 108 % of control, the T/C (dose: 25.0 mg/kg/injection, schedule: Q01DX009 (ip), vehicle: Klucel (hydroxypropylcellulose) (HPC)) was 109 % of control and the T/C [2] was 104 % of control.
For `O=S(=O)(OC1=CC2c3ccccc3C1c1ccccc12)C(F)(F)F`, the T/C (dose: 50.0 mg/kg/injection, schedule: Q01DX005 (ip), vehicle: saline + Tween-80 + alcohol) was 100 % of control, the T/C (dose: 100.0 mg/kg/injection, schedule: Q01DX005 (ip), vehicle: saline + Tween-80 + alcohol) was 100 % of control and the T/C (dose: 200.0 mg/kg/injection, schedule: Q01DX005 (ip), vehicle: saline + Tween-80 + alcohol) was 103 % of control.
`CC(=O)ON=C1C=CC(=C(C#N)c2ccccc2)C=C1` was tested, and the T/C [3] was 104 % of control and the T/C [4] was 122 % of control.
`CCOC(=O)c1c2n(c3ccccc13)C1(C(=O)OCC)CC1(C(C)=O)C1CN21` (centres undefined) was tested, and the T/C (dose: 25.0 mg/kg/injection, schedule: Q01DX005 (ip), vehicle: saline with Tween-80) was 106 % of control, the T/C [5] was 101 % of control and 108 % of control and the T/C [6] was 106 % of control and 120 % of control. The T/C [7] was 117 % of control and 119 % of control.
For `C=C1CC2(OC1=O)C(=O)N(C)c1ccc(I)cc12` (centres undefined), the T/C (dose: 25.0 mg/kg/injection, schedule: Q01DX009 (ip), vehicle: saline) was 116 % of control and the T/C [1] was 87 % of control.
With `CC(CN(C)C)C(/C=C/c1ccc(F)cc1)=N\Nc1ccccc1` (centres undefined) the T/C [8] was 102 % of control and the T/C [9] was 122 % of control.
`C=C1C(O)C2(O)OCC34C(CC5C(C)=CC(=O)C(O)C5(C)C23)OC(=O)C(OC(=O)C(C)(O)CC)C14` (centres undefined) was tested, and the T/C (dose: 0.25 mg/kg/injection, schedule: Q01DX009 (ip), vehicle: saline + alcohol) was 106 % of control and 112 % of control and the T/C (dose: 0.5 mg/kg/injection, schedule: Q01DX009 (ip), vehicle: saline + alcohol) was 118 % of control.
For `Cn1c(=O)c2c(c3ccccc31)OC(C)(C)C=C2`, the T/C [5] was 100 % of control, the T/C [6] was 100 % of control and the T/C [7] was 105 % of control.
In the case of `Cc1cc(=O)c2cc3nc(-c4cccnc4)oc3c(Br)c2o1`, the T/C [10] is reported as 97 % of control, the T/C (dose: 100.0 mg/kg/injection, schedule: Q01DX005 (ip), vehicle: Klucel (hydroxypropylcellulose) (HPC)) is reported as 96 % of control and the T/C (dose: 200.0 mg/kg/injection, schedule: Q01DX005 (ip), vehicle: Klucel (hydroxypropylcellulose) (HPC)) is reported as 88 % of control.
For `CC1(O)CCC(O)CC1CC[N+](C)(C)[O-]` (centres undefined), the T/C (dose: 50.0 mg/kg/injection, schedule: Q01DX005 (ip), vehicle: saline) was 102 % of control, the T/C (dose: 100.0 mg/kg/injection, schedule: Q01DX005 (ip), vehicle: saline) was 99 % of control and the T/C (dose: 200.0 mg/kg/injection, schedule: Q01DX005 (ip), vehicle: saline) was 102 % of control.
With `COc1ccc2sc3c(C)ccc(NCC4CCCN5CCCCC45)c3c(=O)c2c1` (centres undefined) the T/C [5] was 95 % of control, the T/C [6] was 90 % of control and the T/C [7] was 90 % of control.
For `CCCCCCN(CCCCCC)CC(O)c1ccc(Cl)c2ccccc12` (centres undefined), the T/C [5] was 115 % of control, the T/C [6] was 101 % of control and the T/C [7] was 92 % of control.
In the case of `N#Cc1c(-c2ccc(Cl)cc2)cn2c1[nH]c(=O)c1c3c(sc12)CCCC3`, the T/C [8] is reported as 87 % of control and the T/C [9] is reported as 86 % of control.
For `COc1cc(NS(C)(=O)=O)ccc1Nc1c2ccc(Cl)cc2nc2c(OC)cccc12`, the T/C (dose: 3.13 mg/kg/injection, schedule: Q01DX009 (ip), vehicle: saline) was 166 % of control, the T/C (dose: 6.25 mg/kg/injection, schedule: Q01DX009 (ip), vehicle: saline) was 195 % of control and the T/C (dose: 6.25 mg/kg/injection, schedule: Q04DX003 (ip), vehicle: saline with Tween-80) was 154 % of control. For the same compound, the T/C (dose: 8.25 mg/kg/injection, schedule: Q04DX003 (ip), vehicle: saline with Tween-80) was 179 % of control, the T/C (dose: 12.5 mg/kg/injection, schedule: Q01DX009 (ip), vehicle: saline) was 208 % of control and the T/C (dose: 12.5 mg/kg/injection, schedule: Q04DX003 (ip), vehicle: saline with Tween-80) was 170 % of control and 204 % of control. For the same compound, the T/C (dose: 18.75 mg/kg/injection, schedule: Q04DX003 (ip), vehicle: saline with Tween-80) was 229 % of control.
With `N/N=C1\c2ccccc2-c2cccc(O)c21` the T/C (dose: 7.5 mg/kg/injection, schedule: Q01DX005 (ip), vehicle: saline with Tween-80) was 101 % of control, the T/C (dose: 15.0 mg/kg/injection, schedule: Q01DX005 (ip), vehicle: saline with Tween-80) was 97 % of control and the T/C (dose: 30.0 mg/kg/injection, schedule: Q01DX005 (ip), vehicle: saline with Tween-80) was 93 % of control.
For `COc1cc(NS(=O)(=O)c2ccc(NC(C)c3ccc4cccnc4c3O)cc2)nc(OC)n1` (centres undefined), the T/C [8] was 98 % of control, the T/C [9] was 99 % of control and the T/C [11] was 96 % of control.
With `O=C1CCc2ccccc2C1C(=O)CC(O)(c1ccccc1)c1ccccc1` (centres undefined) the T/C (dose: 12.5 mg/kg/injection, schedule: Q01DX009 (ip), vehicle: saline sonified) was 95 % of control, the T/C (dose: 25.0 mg/kg/injection, schedule: Q01DX009 (ip), vehicle: saline sonified) was 100 % of control and the T/C (dose: 50.0 mg/kg/injection, schedule: Q01DX009 (ip), vehicle: saline sonified) was 95 % of control.
With `NC(Cc1ccc2ccccc2c1Cl)C(=O)O` (centres undefined) the T/C [2] was 102 % of control, the T/C (dose: 100.0 mg/kg/injection, schedule: Q01DX009 (ip), vehicle: Klucel (hydroxypropylcellulose) (HPC)) was 100 % of control and the T/C (dose: 200.0 mg/kg/injection, schedule: Q01DX009 (ip), vehicle: Klucel (hydroxypropylcellulose) (HPC)) was 100 % of control.
`C[N+](C)(CCCCCCOc1c(Br)cc(Br)cc1Br)Cc1ccc(Br)o1` was tested, and the T/C (dose: 1.56 mg/kg/injection, schedule: Q01DX009 (ip), vehicle: Klucel (hydroxypropylcellulose) (HPC)) was 104 % of control, the T/C (dose: 3.12 mg/kg/injection, schedule: Q01DX009 (ip), vehicle: Klucel (hydroxypropylcellulose) (HPC)) was 113 % of control and the T/C (dose: 6.25 mg/kg/injection, schedule: Q01DX009 (ip), vehicle: Klucel (hydroxypropylcellulose) (HPC)) was 93 % of control.
For `N#CN1C2C=CC(c3ccccc3)NC21` (centres undefined), the T/C [3] was 100 % of control and the T/C [4] was 96 % of control.
With `COC(=O)C1=[N+]([O-])OC(C(=O)OC)C1c1ccc(F)cc1` (centres undefined) the T/C [8] was 93 % of control, the T/C [9] was 90 % of control and the T/C [11] was 94 % of control.
In the case of `CN1CCCC(Cc2ccccc2)S1(=O)=O` (centres undefined), the T/C (dose: 100.0 mg/kg/injection, schedule: Q01DX001 (ip), vehicle: saline with Tween-80) is reported as 98 % of control, the T/C (dose: 200.0 mg/kg/injection, schedule: Q01DX001 (ip), vehicle: saline with Tween-80) is reported as 99 % of control and the T/C (dose: 400.0 mg/kg/injection, schedule: Q01DX001 (ip), vehicle: saline with Tween-80) is reported as 98 % of control.
With `Cc1cccc[c]1[Sn]([Cl])([O][Sn]([Cl])([c]1ccccc1C)[c]1ccccc1C)[c]1ccccc1C` the T/C (dose: 0.19 mg/kg/injection, schedule: Q01DX005 (ip), vehicle: saline) was 110 % of control, the T/C (dose: 0.39 mg/kg/injection, schedule: Q01DX005 (ip), vehicle: saline) was 114 % of control and the T/C (dose: 1.56 mg/kg/injection, schedule: Q01DX005 (ip), vehicle: saline) was 124 % of control.
With `C[n+]1c(-c2ccc(/C=N/NC(=O)c3cc(O)c(C(=O)N/N=C/c4ccc(-c5cn6ccccc6[n+]5C)cc4)cc3O)cc2)cn2ccccc21` the T/C [8] was 105 % of control and the T/C [9] was 105 % of control.
`CCC(c1ccc(O)cc1)c1cc2c(cc1OCC(=O)OC)OCO2` (centres undefined) was tested, and the T/C [5] was 97 % of control, the T/C [6] was 93 % of control and the T/C [7] was 88 % of control.
For `CC(=O)OC1(C)C(=O)OC/C2=C/CN(C)CCC(OC(=O)C(O)(C(C)Cl)CC1C)C2=O` (centres undefined), the T/C (dose: 12.5 mg/kg/injection, schedule: Q01DX005 (ip), vehicle: Klucel (hydroxypropylcellulose) (HPC)) was 103 % of control, the T/C (dose: 25.0 mg/kg/injection, schedule: Q01DX005 (ip), vehicle: Klucel (hydroxypropylcellulose) (HPC)) was 100 % of control and the T/C [10] was 99 % of control and 103 % of control.
With `CCCCCCCC1SC(=S)NC1=O` (centres undefined) the T/C (dose: 6.25 mg/kg/injection, schedule: Q04DX003 (ip), vehicle: other) was 109 % of control, the T/C (dose: 12.5 mg/kg/injection, schedule: Q04DX003 (ip), vehicle: other) was 101 % of control and the T/C (dose: 25.0 mg/kg/injection, schedule: Q04DX003 (ip), vehicle: other) was 108 % of control. For the same compound, the T/C (dose: 50.0 mg/kg/injection, schedule: Q04DX003 (ip), vehicle: other) was 108 % of control and the T/C (dose: 100.0 mg/kg/injection, schedule: Q04DX003 (ip), vehicle: other) was 101 % of control.
